Source: ChEMBL document CHEMBL4196234, “Deciphering Binding Interactions of IL-23R with HDX-MS: Mapping Protein and Macrocyclic Dodecapeptide Ligands” (ACS Med Chem Lett, 2018)

Legend:
[1] = target: T1, Interleukin-23 receptor (Homo sapiens, UniProt Q5VWK5); test: Binding affinity to recombinant human flag/His-tagged IL-23R (1 to 353 residues) expressed in HEK293F cells measured over 90 secs by surface plasmon resonance assay
T1 sequence (Q5VWK5 whole entry): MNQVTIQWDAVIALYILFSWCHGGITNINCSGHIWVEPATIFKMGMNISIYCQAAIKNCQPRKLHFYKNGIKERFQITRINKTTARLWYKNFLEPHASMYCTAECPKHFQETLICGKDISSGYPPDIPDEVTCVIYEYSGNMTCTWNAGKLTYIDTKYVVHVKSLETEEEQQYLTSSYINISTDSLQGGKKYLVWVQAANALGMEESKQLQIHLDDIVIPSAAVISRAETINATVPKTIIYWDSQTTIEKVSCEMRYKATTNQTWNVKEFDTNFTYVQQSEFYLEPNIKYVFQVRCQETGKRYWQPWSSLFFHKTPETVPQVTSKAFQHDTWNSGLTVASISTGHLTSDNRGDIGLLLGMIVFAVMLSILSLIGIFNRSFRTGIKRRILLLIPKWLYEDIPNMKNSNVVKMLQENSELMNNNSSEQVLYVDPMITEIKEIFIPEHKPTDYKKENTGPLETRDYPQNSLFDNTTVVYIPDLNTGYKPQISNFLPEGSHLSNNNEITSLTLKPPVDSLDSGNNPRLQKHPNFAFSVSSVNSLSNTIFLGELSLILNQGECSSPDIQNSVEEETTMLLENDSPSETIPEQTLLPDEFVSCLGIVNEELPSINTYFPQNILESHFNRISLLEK

[2] = target: T2, Interleukin-23 receptor (Homo sapiens) (UniProt Q5VWK5); test: Binding affinity to recombinant human flag/His-tagged IL-23R (1 to 353 residues) expressed in HEK293F cells assessed as association rate constant measured over 90 secs by surface plasmon resonance assay
T2 sequence (whole entry): T1 sequence (Q5VWK5 whole entry)

[3] = target: T1, Interleukin-23 receptor; test: Binding affinity to recombinant human flag/His-tagged IL-23R (1 to 353 residues) expressed in HEK293F cells assessed as dissociation rate constant measured over 90 secs by surface plasmon resonance assay
[4] = target: T1, Interleukin-23 receptor; test: Binding affinity to recombinant human flag/His-tagged IL-23R (1 to 353 residues) expressed in HEK293F cells assessed as disruption of biotinylated IL-23 binding to receptor preincubated for 1 hr followed by biotinylated IL-23 addition measured after over night incubation by AlphaLISA assay; assay type: cell-based
[5] = target: T1, Interleukin-23 receptor; test: Binding affinity to recombinant human flag/His-tagged IL-23R (1 to 353 residues) expressed in HEK293F cells assessed as disruption of biotinylated IL-23 binding to receptor preincubated for 1 hr followed by biotinylated IL-23 addition measured after 1 hr by TR-FRET assay; assay type: cell-based

- Kd [1]: 1.81 to 2 nM
- Ka [2]: 1.51 ×10⁷ (1/Ms)
- Kd [3]: 2.74 ×10⁻² (1/s)
- IC50 [4]: 2.7 nM
- IC50 [5]: 5.1 nM
SMILES: CC(=O)N[C@H]1CCSC[C@@H](C(=O)N[C@@H](Cc2ccc(OCCN)cc2)C(=O)N[C@@H](Cc2c[nH]c3ccccc23)C(=O)N[C@@](C)(CCCCN)C(=O)N[C@@H](CCC(=O)O)C(=O)N[C@@H](CC(N)=O)C(=O)NCC(N)=O)NC(=O)[C@H](CCC(N)=O)NC(=O)[C@H](Cc2c[nH]c3ccccc23)NC(=O)[C@H]([C@@H](C)O)NC(=O)[C@H](CCC(N)=O)NC1=O
